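Following 48 hours of exposure in 96-well plates, responses at five concentrations were used to interpolate endpoints linearly. GI50: concentration for 50% inhibition of growth. Definition used: TGI = concentration required for complete inhibition of growth.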
Key:
Experiment in all cases: NCI tumour cell line growth inhibition, 48 h
[1] = system: DLD-1 colon
[2] = system: DMS 114 small cell lung
[3] = system: DMS 273 small cell lung
[4] = system: LXFL 529 NSCLC
[5] = system: SNB-78 CNS
[6] = system: XF 498 CNS
[7] = system: HOP-18 NSCLC
[8] = system: KM20L2 colon
[9] = system: P388 leukemia
[10] = system: SN12K1 renal
[11] = system: RXF-631 renal
[12] = system: P388/ADR leukemia

O=S(=O)(O)c1cc(N=Nc2cc(S(=O)(=O)O)c3ccccc3c2O)ccc1/C=C/c1ccc(N=Nc2cc(S(=O)(=O)O)c3ccccc3c2O)cc1S(=O)(=O)O
GI50 [1]: > 1 mM | TGI [1]: > 1000 µM | GI50 [2]: > 1 mM | TGI [2]: > 1000 µM | GI50 [3]: > 1 mM | TGI [3]: > 1000 µM | TGI [4]: > 1000 µM | GI50 [5]: > 1 mM | TGI [5]: > 1000 µM | GI50 [6]: > 1 mM | TGI [6]: > 1000 µM

Nc1cc(S(=O)(=O)O)cc2cc(S(=O)(=O)O)c(N=Nc3ccc(-c4ccc(N=Nc5c(S(=O)(=O)O)cc6cc(S(=O)(=O)O)cc(N)c6c5O)cc4)cc3)c(O)c12
TGI [1]: > 100 µM | TGI [2]: > 100 µM | TGI [3]: > 100 µM | TGI [7]: > 100 µM | TGI [8]: > 100 µM | TGI [9]: > 100 µM | TGI [10]: > 100 µM | TGI [5]: > 100 µM | TGI [6]: > 100 µM

C=C(C)C1CC2=C(O1)C(=O)c1ccccc1C2=O (configuration not stated)
TGI [1]: 52.1 µM | TGI [2]: 32.9 µM | TGI [3]: 33.5 µM | TGI [4]: 31.4 µM | TGI [11]: 40.3 µM | TGI [5]: 39.9 µM | TGI [6]: 32.2 µM

CC(C)(C)C1(c2ccc(C3(c4ccccc4)Oc4ccccc4S3)[nH]2)Oc2ccccc2S1 (configuration not stated)
TGI [1]: > 100 µM | TGI [2]: > 100 µM | TGI [3]: > 100 µM | TGI [7]: > 100 µM | TGI [8]: > 100 µM | TGI [4]: > 100 µM | TGI [11]: > 100 µM | TGI [5]: > 100 µM | TGI [6]: > 100 µM

O=Nc1ccc(O)c2ncccc12
TGI [1]: 25.3 µM | TGI [2]: 12.4 µM | TGI [3]: 10.3 µM | TGI [7]: 51.8 µM | TGI [8]: 89.9 µM | TGI [4]: 12.9 µM | TGI [5]: 11.4 µM

C=C(CN(C)C)C(=O)c1ccc(C)cc1C
TGI [1]: 14.2 µM | TGI [2]: 46.6 µM | TGI [3]: 44.2 µM | TGI [7]: 30.3 µM | TGI [8]: 39 µM | TGI [4]: 26.9 µM | TGI [11]: 36.9 µM | TGI [5]: 60.4 µM | TGI [6]: 27.6 µM

CC(C)=CCc1c(O)ccc2c1OC1c3ccc(O)c(CC=C(C)C)c3OCC21 (configuration not stated)
TGI [1]: 18.9 µM | TGI [2]: 26.3 µM | TGI [3]: 28.2 µM | TGI [7]: 33.3 µM | TGI [8]: 34 µM | TGI [9]: 37.4 µM | TGI [12]: 32.2 µM | TGI [10]: 20.2 µM | TGI [5]: 33 µM | TGI [6]: 32.6 µM
